Test results reported in PubChem BioAssay (NCI).
Where “and” joins values, the source holds several entries; their conditions need not be identical. Identical values can stand only once.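 Protocol summary: plate cells (96-well), add compound at 5 concentrations, incubate 48 h, interpolate endpoints linearly. Here, GI50 denotes the concentration required for 50% inhibition of growth. TGI: total growth inhibition.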

Columns and labels:
Test in all cases: inhibition of tumour cell growth, NCI panel, 48 h
NCI-H522 lung = tested on: NCI-H522 lung
NCI-H460 lung = tested on: NCI-H460 lung
RPMI-8226 leukemia = tested on: RPMI-8226 leukemia
SNB-19 CNS = tested on: SNB-19 CNS
SF-539 CNS = tested on: SF-539 CNS
NCI-H226 lung = tested on: NCI-H226 lung
786-0 renal = tested on: 786-0 renal
LOX IMVI melanoma = tested on: LOX IMVI melanoma
OVCAR-5 ovarian = tested on: OVCAR-5 ovarian
EKVX NSCLC = tested on: EKVX NSCLC

## Clc1nc2ccccc2nc1CI
NCI-H522 lung
  GI50: 1.77 µM
  TGI: 3.58 µM
NCI-H460 lung
  GI50: 11 µM
  TGI: 28.5 µM
RPMI-8226 leukemia
  GI50: 4.33 µM
  TGI: 21.9 µM
SNB-19 CNS
  GI50: 16.2 µM
  TGI: 37.4 µM
SF-539 CNS
  GI50: 2.34 µM
  TGI: 6.27 µM
NCI-H226 lung
  GI50: 2.67 µM
  TGI: 8.24 µM
786-0 renal
  GI50: 3.95 µM
  TGI: 13.8 µM
LOX IMVI melanoma
  GI50: 1.03 µM
  TGI: 3.34 µM
OVCAR-5 ovarian
  GI50: 8.26 µM
  TGI: 22 µM

## CN(C)/C=N/c1nc2c(ncn2C2OC(CO)C(O)C2O)c(=O)[nH]1 (centres undefined)
NCI-H460 lung
  TGI: > 100 µM
RPMI-8226 leukemia
  TGI: > 100 µM
EKVX NSCLC
  TGI: > 100 µM
SNB-19 CNS
  TGI: > 100 µM
SF-539 CNS
  TGI: > 100 µM
NCI-H226 lung
  TGI: > 100 µM
786-0 renal
  TGI: > 100 µM
OVCAR-5 ovarian
  TGI: > 100 µM

## C=C1CC[C@@H]2[C@](C)(COC(C)=O)[C@H](OC(C)=O)CC[C@@]2(C)[C@@H]1CC(Sc1ccccc1)C1=CCOC1=O (some centres undefined)
NCI-H522 lung
  GI50: 1.35 µM
  TGI: 2.98 µM
NCI-H460 lung
  GI50: 2.24 µM
  TGI: 6.03 µM
RPMI-8226 leukemia
  GI50: 0.343 µM
  TGI: 2.73 µM
EKVX NSCLC
  GI50: 2.43 µM
  TGI: 10.4 µM
SNB-19 CNS
  GI50: 1.78 µM
  TGI: 3.77 µM
NCI-H226 lung
  GI50: 2.3 µM
  TGI: 5.98 µM
786-0 renal
  GI50: 1.9 µM
  TGI: 3.64 µM
LOX IMVI melanoma
  GI50: 0.297 µM
  TGI: 1.19 µM
OVCAR-5 ovarian
  GI50: 2.46 µM
  TGI: 4.67 µM

## CN(C)c1nc2ccccc2[nH]1
NCI-H522 lung
  TGI: > 100 µM
NCI-H460 lung
  TGI: > 100 µM
RPMI-8226 leukemia
  TGI: > 100 µM
EKVX NSCLC
  TGI: > 100 µM
SF-539 CNS
  TGI: > 100 µM
786-0 renal
  TGI: > 100 µM
LOX IMVI melanoma
  TGI: > 100 µM
OVCAR-5 ovarian
  TGI: > 100 µM

## Cn1c2c(c3ccccc31)C1CCCCCCC1C1C(=O)OC(=O)C21 (centres undefined)
NCI-H460 lung
  TGI: > 100 µM
RPMI-8226 leukemia
  TGI: 61.2 µM
EKVX NSCLC
  TGI: > 100 µM
SNB-19 CNS
  TGI: > 100 µM
SF-539 CNS
  TGI: > 100 µM
NCI-H226 lung
  TGI: > 100 µM
786-0 renal
  TGI: > 100 µM
LOX IMVI melanoma
  TGI: 51.2 µM
OVCAR-5 ovarian
  TGI: > 100 µM

## S=C1NC2(CCCCCC2)NN1c1ccccc1
NCI-H522 lung
  TGI: > 100 µM
NCI-H460 lung
  TGI: > 100 µM
RPMI-8226 leukemia
  TGI: > 100 µM
EKVX NSCLC
  TGI: > 100 µM
SNB-19 CNS
  TGI: > 100 µM
NCI-H226 lung
  TGI: > 100 µM
786-0 renal
  TGI: > 100 µM
LOX IMVI melanoma
  TGI: > 100 µM
OVCAR-5 ovarian
  TGI: > 100 µM

## COc1cc(C(Cc2ccccc2)NC(C)=O)oc(=O)c1 (centres undefined)
NCI-H522 lung
  TGI: > 100 µM
NCI-H460 lung
  TGI: > 100 µM
RPMI-8226 leukemia
  TGI: > 100 µM
EKVX NSCLC
  TGI: > 100 µM
SNB-19 CNS
  TGI: > 100 µM
NCI-H226 lung
  TGI: > 100 µM
786-0 renal
  TGI: > 100 µM
LOX IMVI melanoma
  TGI: > 100 µM
OVCAR-5 ovarian
  TGI: > 100 µM

## N#CC(N)(C(=O)CCC(=O)Nc1cccc(Cl)c1)c1ccc(Cl)cc1 (centres undefined)
NCI-H522 lung
  TGI: > 100 µM
NCI-H460 lung
  TGI: > 100 µM
RPMI-8226 leukemia
  TGI: > 100 µM
EKVX NSCLC
  TGI: > 100 µM
SNB-19 CNS
  TGI: > 100 µM
SF-539 CNS
  TGI: > 100 µM
NCI-H226 lung
  TGI: > 100 µM
786-0 renal
  TGI: > 100 µM

## Cn1c2ccccc2c2c3c(c4c5cc(Br)ccc5n(C)c4c21)C(=O)N(O)C3=O
NCI-H522 lung
  GI50: 0.167 µM
  TGI: > 100 µM
NCI-H460 lung
  GI50: 0.048 µM
  TGI: 1.08 µM
SNB-19 CNS
  GI50: 0.0536 µM
  TGI: > 100 µM
SF-539 CNS
  GI50: 0.0403 µM
  TGI: 0.323 µM
786-0 renal
  GI50: 0.289 µM
  TGI: 1.4 µM

## Cc1ccc(S(=O)(=O)N(CC(=O)O)c2ccccc2)cc1
NCI-H522 lung
  TGI: > 100 µM
NCI-H460 lung
  TGI: > 100 µM
RPMI-8226 leukemia
  TGI: > 100 µM
EKVX NSCLC
  TGI: > 100 µM
SNB-19 CNS
  TGI: > 100 µM
SF-539 CNS
  TGI: > 100 µM
786-0 renal
  TGI: > 100 µM
LOX IMVI melanoma
  TGI: > 100 µM
OVCAR-5 ovarian
  TGI: > 100 µM

## Cc1nn(-c2ccccc2)c2nc(N3CCOCC3)nnc12
NCI-H460 lung
  TGI: > 100 µM
RPMI-8226 leukemia
  TGI: > 100 µM
EKVX NSCLC
  TGI: > 100 µM
SNB-19 CNS
  TGI: > 100 µM
SF-539 CNS
  TGI: > 100 µM
786-0 renal
  TGI: > 100 µM
LOX IMVI melanoma
  TGI: > 100 µM
OVCAR-5 ovarian
  TGI: > 100 µM

## Cc1cc(CC(O)c2ccc(Cl)c(Cl)c2)nc(=O)[nH]1 (centres undefined)
NCI-H522 lung
  TGI: 69.9 µM
NCI-H460 lung
  TGI: > 100 µM
RPMI-8226 leukemia
  TGI: > 100 µM
EKVX NSCLC
  TGI: 96.7 µM
SNB-19 CNS
  TGI: > 100 µM
NCI-H226 lung
  TGI: 92 µM
786-0 renal
  TGI: 38.7 µM
OVCAR-5 ovarian
  TGI: > 100 µM

## O=C1NC(=O)C(c2cnc3ccccn23)=C1c1cn2c3c(cc(F)cc13)CN(C(=O)N1CCCCC1)CC2
NCI-H522 lung
  GI50: 13.9 µM
  TGI: 40.1 µM
NCI-H460 lung
  GI50: 2.45 µM
  TGI: 29.1 µM
RPMI-8226 leukemia
  GI50: 15.9 µM
  TGI: 46.6 µM
SNB-19 CNS
  GI50: 22.8 µM
  TGI: > 87.5 µM
SF-539 CNS
  GI50: 2.74 µM
  TGI: 24.4 µM
NCI-H226 lung
  GI50: 3.7 µM
  TGI: 54.8 µM
786-0 renal
  GI50: 3.05 µM
  TGI: > 59.4 µM
LOX IMVI melanoma
  TGI: 15.8 µM
OVCAR-5 ovarian
  GI50: 23.5 µM
  TGI: 64.4 µM

## Cn1cc(CO)c2c1C(=O)C=C(N1CC1)C2=O
NCI-H522 lung
  GI50: < 0.01 µM
  TGI: 0.0775 µM
NCI-H460 lung
  GI50: < 0.01 µM
  TGI: 1.27 µM
RPMI-8226 leukemia
  GI50: < 0.01 µM
  TGI: 0.192 µM
EKVX NSCLC
  GI50: 0.214 µM
  TGI: 1.15 µM
SNB-19 CNS
  GI50: < 0.0197 µM
  TGI: 0.862 µM
SF-539 CNS
  GI50: < 0.01 µM
  TGI: < 0.01 µM
786-0 renal
  GI50: < 0.01 µM
  TGI: 0.108 µM
LOX IMVI melanoma
  GI50: < 0.01 µM
  TGI: 0.0184 µM
OVCAR-5 ovarian
  GI50: 0.0365 µM
  TGI: 4.79 µM

## Cc1nc2c(-c3cnc(N)nc3)nc(N3CCOCC3)nc2n1C(C)C
NCI-H522 lung
  GI50: 0.137 µM and 0.138 µM
NCI-H460 lung
  TGI: > 100 µM
RPMI-8226 leukemia
  GI50: 0.179 µM and 0.123 µM
  TGI: > 3 µM and 10.9 µM
EKVX NSCLC
  TGI: 1.81 µM
SNB-19 CNS
  TGI: > 100 µM
SF-539 CNS
  TGI: 1.17 µM and 0.481 µM
786-0 renal
  TGI: 1.32 µM and 0.902 µM
LOX IMVI melanoma
  TGI: 1.56 µM and 6.03 µM
OVCAR-5 ovarian
  TGI: > 3.48 µM

## Cc1ccc(NC(=O)C(=O)C(C(=O)c2ccc3ccccc3c2)C2OC(=O)c3ccccc32)cc1C (centres undefined)
NCI-H460 lung
  TGI: 51.4 µM
RPMI-8226 leukemia
  TGI: 37.5 µM
EKVX NSCLC
  TGI: > 100 µM
SNB-19 CNS
  TGI: 21.3 µM
SF-539 CNS
  TGI: 11.4 µM
NCI-H226 lung
  TGI: 11 µM
786-0 renal
  TGI: 23.8 µM
LOX IMVI melanoma
  TGI: 32.8 µM
OVCAR-5 ovarian
  TGI: 71.3 µM

## CCCCCCNC(=O)c1cc(NCc2cc(O)ccc2O)ccc1O
NCI-H522 lung
  GI50: 0.265 µM
  TGI: 0.752 µM
NCI-H460 lung
  GI50: 21.5 µM
  TGI: 82.3 µM
RPMI-8226 leukemia
  GI50: 0.371 µM
  TGI: 6.47 µM
EKVX NSCLC
  GI50: 7.69 µM
  TGI: 25.2 µM
SNB-19 CNS
  GI50: 14.9 µM
  TGI: 28.6 µM
SF-539 CNS
  GI50: 1.91 µM
  TGI: 6.06 µM
786-0 renal
  GI50: 5.22 µM
  TGI: 20.7 µM
LOX IMVI melanoma
  GI50: 6.84 µM
  TGI: 22.4 µM
OVCAR-5 ovarian
  GI50: 6.63 µM
  TGI: 20.8 µM

## CN(C)N=Nc1ccc(NC=O)cc1
NCI-H460 lung
  TGI: > 100 µM
RPMI-8226 leukemia
  TGI: > 100 µM
EKVX NSCLC
  TGI: > 100 µM
SNB-19 CNS
  TGI: > 100 µM
SF-539 CNS
  TGI: > 100 µM
786-0 renal
  TGI: > 100 µM
LOX IMVI melanoma
  TGI: > 100 µM
OVCAR-5 ovarian
  TGI: > 100 µM

## CCOc1ccccc1C=C1c2ccccc2C(=O)c2ccccc21
NCI-H522 lung
  TGI: 6.57 µM
NCI-H460 lung
  TGI: 31.9 µM
RPMI-8226 leukemia
  TGI: 23.2 µM
EKVX NSCLC
  TGI: 61.4 µM
SNB-19 CNS
  TGI: > 100 µM
SF-539 CNS
  TGI: 5.22 µM
786-0 renal
  TGI: 18 µM
LOX IMVI melanoma
  TGI: > 100 µM
OVCAR-5 ovarian
  TGI: > 100 µM

## COc1cc(C#CC(=O)OC/C=C/c2ccc3c(c2)OCO3)cc(OC)c1OC
NCI-H460 lung
  TGI: 77.1 µM
RPMI-8226 leukemia
  TGI: 51.8 µM
EKVX NSCLC
  TGI: 76.9 µM
SNB-19 CNS
  TGI: > 100 µM
SF-539 CNS
  TGI: 44.5 µM
NCI-H226 lung
  TGI: 48.5 µM
786-0 renal
  TGI: > 100 µM
LOX IMVI melanoma
  TGI: 47.3 µM
OVCAR-5 ovarian
  TGI: > 100 µM

## COc1ccc(C2C(Cl)C(=O)N2n2cnc3ccccc3c2=O)cc1 (centres undefined)
NCI-H522 lung
  TGI: > 100 µM
NCI-H460 lung
  TGI: > 100 µM
RPMI-8226 leukemia
  TGI: > 100 µM
EKVX NSCLC
  TGI: > 100 µM
SNB-19 CNS
  TGI: > 100 µM
NCI-H226 lung
  TGI: > 100 µM
786-0 renal
  TGI: > 100 µM
LOX IMVI melanoma
  TGI: > 100 µM
OVCAR-5 ovarian
  TGI: > 100 µM
